Results taken from publication PMC3481288 (The Journal of Biological Chemistry, 2012).

Target: T1, PBP2ALGA (Staphylococcus aureus, UniProt F4NA57)
T1 sequence (F4NA57 23-665 limits assumed): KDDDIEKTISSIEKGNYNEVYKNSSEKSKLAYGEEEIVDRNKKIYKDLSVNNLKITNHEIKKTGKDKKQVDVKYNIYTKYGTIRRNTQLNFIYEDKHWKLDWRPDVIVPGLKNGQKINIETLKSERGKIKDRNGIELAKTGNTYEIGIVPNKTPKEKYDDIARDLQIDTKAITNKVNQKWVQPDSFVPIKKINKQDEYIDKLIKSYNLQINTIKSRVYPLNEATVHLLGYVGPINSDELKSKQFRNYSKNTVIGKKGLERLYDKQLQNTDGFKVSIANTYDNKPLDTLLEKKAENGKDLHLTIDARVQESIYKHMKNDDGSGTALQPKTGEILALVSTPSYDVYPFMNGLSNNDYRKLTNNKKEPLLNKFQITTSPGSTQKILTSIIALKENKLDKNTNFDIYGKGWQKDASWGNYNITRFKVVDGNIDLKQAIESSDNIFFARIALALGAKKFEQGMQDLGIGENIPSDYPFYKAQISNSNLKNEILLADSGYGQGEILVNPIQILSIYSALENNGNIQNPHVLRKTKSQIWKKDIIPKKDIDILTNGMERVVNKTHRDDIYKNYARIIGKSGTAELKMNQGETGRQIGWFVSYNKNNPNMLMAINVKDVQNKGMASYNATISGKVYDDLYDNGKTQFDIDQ
Test: Bocillin FL competition, SDS-PAGE fluorescence
Format: binding

## CO[C@@]1(NC(=O)Cc2cccs2)C(=O)N2C(C(=O)O)=C(COC(N)=O)CS[C@@H]21 [cefoxitin]
  IC50: 501 µM

## Cc1onc(-c2ccccc2)c1C(=O)N[C@@H]1C(=O)N2[C@@H]1SC(C)(C)[C@@H]2C(=O)O [oxacillin]
  IC50: 212 µM
